Laboratory results reported in patent publication US20030194719A1, “Tpst-assay for diagnosis of autism and related disorders” (priority 2000, published 2003).

What was measured:
[1] = tested on: Tyrosyl protein sulphotransferase (TPST); assay: TPST activity assay in platelets from normal healthy blood donors (35S transfer from PAPS35 to EAY substrate); assay type: biochemical, human; conditions: for TPST activity (0 μM = 100.0): Table 5; for TPST activity (0 μM = 100): Table 7
Protocol: The activity of sulphotransferases can be measured by monitoring the transfer of ^35S from the sulphate donor, PAPS^35, to the product, in this case the synthetic tyrosine substrate EAY. This assay uses platelets from control subjects (n=5) and those patients suffering from a particular disorder, selected from autism (n=14), irritable bowel syndrome (n=3) schizophrenia (gluten-sensitive)(n=4), food allergy (gluten, milk) (n=3) and depression (n=2).
Reaction mixtures were incubated for 50 minutes at 37° C. and reactions were stopped by barium acetate. Unreacted sulphate, proteins and nucleotides were precipitated by zinc sulphate and barium hydroxide. Within the reaction there is a positive and negative control. The positive control is termed 100%, and represents the total amount of radioactivity present in the hot PAPS^35 sample. The negative control is the “no-enzyme” reaction, this represents the amount of sulphate transferred to the product when no enzyme is present, i.e. the chemical reaction. The blank for the reaction is made up without PAPS^35 and without enzyme.
10 ml of whole blood was taken from patients and the blood cells removed. The remaining plasma was centrifuged at 8000 g for 5 mins to sediment the platelets. This platelet pellet was resuspended in 5 ml 10 mM phosphate buffered saline (PBS) containing 10 mM EDTA, recentrifuged at 2000 g at 4° C. for 30 min. […] The platelets were sonicated for 12×10 second bursts at 4° C. The platelet sonicates were stored in 1 ml portions at −70° C. prior to use.
Substrate: 10 μl EAY (300 μM; poly (Glu, Ala, Tyr) 6:3:1) was used in each test assay, to give a final concentration in the reaction of 20 μM. This solution was made up in MES reaction buffer.
Reaction mixtures were made up as in the table above. To begin the assay, platelet homogenate (20 μl) and PAPS^35 (20 μl) were added at 30-second intervals to a final volume of 150 μl. The reaction mixture was then incubated at 37° C. for 40 min. The reaction is stopped by the addition of 200 μl-barium acetate (0.1 M) and the tubes were vortexed and placed on ice for […].
Unreacted sulphate was then precipitated by the addition of 0.1 M zinc sulphate (200 μl) and 0.1 M barium hydroxide (200 μl). The tubes were vortexed and centrifuged at 6500 rpm for 3 min.
Repeat step 3. Supernatant (500 μl) was then added to scintillation fluid (3.5 ml) and S^35 was counted in a Phillips scintillation counter.
Various compounds were investigated, including fatty acids, flavonoids and amino acids. […] Compounds were tested at the concentrations shown and were dissolved in buffer where possible or ethanol if not.
In the Example shown in Table 6 and FIG. 6 compounds were all dissolved in DMSO and tested at 25 μM.

TPST [2] = conditions: PC12 cells; cited from earlier work
TPST [3] = conditions: stomach and liver of ethanol-fed male Sprague-Dawley rats; cited from earlier work
TPST [4] = conditions: human alcoholics; cited from earlier work
[5] = Table 6, 25 μM, dissolved in DMSO, human platelets
[6] = Example 2, concentrations as in Table 2, normal human platelets
[7] = Table 2, 100 μM, normal human platelets

O=c1cc(-c2cc(O)c(O)c(O)c2O)oc2cc(O)ccc12 [2′,3′,4′,5′,7 OH Flavone]
% Control TPST Activity [1, 5]: 38%

O=c1cc(-c2cc(O)cc(O)c2)oc2cc(O)ccc12 [3′,5′,7 OH Flavone]
% Control TPST Activity [1, 5]: 32%

CCCCCCCC/C=C\CCCCCCCC(=O)O [Oleic Acid]
Effect on TPST activity (in words) [1, 6]: slight stimulation of TPST activity
% Control TPST Activity [1, 7]: 111%
TPST activity (0 μM = 100.0) ([1]; fatty acid 0.5 μM): 74.5
TPST activity (0 μM = 100.0) ([1]; fatty acid 1 μM): 61.5
TPST activity (0 μM = 100.0) ([1]; fatty acid 2.5 μM): 69.2
TPST activity (0 μM = 100.0) ([1]; fatty acid 5 μM): 51.4
TPST activity (0 μM = 100.0) ([1]; fatty acid 10 μM): 60.5
TPST activity (0 μM = 100.0) ([1]; fatty acid 25 μM): 56.2
TPST activity (0 μM = 100.0) ([1]; fatty acid 50 μM): 54.3
TPST activity (0 μM = 100.0) ([1]; fatty acid 100 μM): 29.5

O=c1c(O)c(-c2ccccc2)oc2ccccc12 [3 OH Flavone]
% Control TPST Activity [1, 5]: 96%
TPST activity (0 μM = 100) ([1]; flavonoid 0.5 μM): 79
TPST activity (0 μM = 100) ([1]; flavonoid 1 μM): 92.6
TPST activity (0 μM = 100) ([1]; flavonoid 2.5 μM): 90.7
TPST activity (0 μM = 100) ([1]; flavonoid 5 μM): 83
TPST activity (0 μM = 100) ([1]; flavonoid 10 μM): 97.9
TPST activity (0 μM = 100) ([1]; flavonoid 25 μM): 101.1
TPST activity (0 μM = 100) ([1]; flavonoid 50 μM): 95.5
TPST activity (0 μM = 100) ([1]; flavonoid 100 μM): 94.4

NC(=O)CC[C@H](N)C(=O)O [Glutamine]
Effect on TPST activity (in words) [1, 6]: increased activity
% Control TPST Activity [1, 7]: 125%

O=c1cc(-c2ccc(O)c(O)c2)oc2ccccc12 [3′,4′ OH Flavone]
% Control TPST Activity [1, 5]: 55%

O=C(O)CCC(=O)O [Succinate]
Effect on TPST activity (in words) [1, 6]: decreasing sulphation
% Control TPST Activity [1, 7]: 59%

O=c1c(-c2ccc(O)c(O)c2)coc2cc(O)ccc12 [3′,4′,7 OH Isoflavone]
% Control TPST Activity [1, 5]: 17%

O=c1c(-c2ccc(O)cc2)coc2cc(O)cc(O)c12 [Genistein]
Effect on TPST activity (in words) ([1]; Example 2, 100 μM): inhibitory effect on TPST activity
Effect on TPST activity (in words) ([1]; Example 3, 25 μM, platelets): stimulation of TPST activity
Effect on TPST activity (in words) ([1]; Example 3, 25 μM, platelets, listed as genistein): TPST enhancing effect
% Control TPST Activity [1, 7]: 74%
% Control TPST Activity [1, 5]: 117%
TPST activity (0 μM = 100) ([1]; flavonoid 2.5 μM): 86.5
TPST activity (0 μM = 100) ([1]; flavonoid 5 μM): 83.4
TPST activity (0 μM = 100) ([1]; flavonoid 10 μM): 75.8
TPST activity (0 μM = 100) ([1]; flavonoid 25 μM): 50.9
TPST activity (0 μM = 100) ([1]; flavonoid 50 μM): 62

Oc1cc(O)c2c(c1)O[C@H](c1ccc(O)c(O)c1)[C@@H](O)C2 [(+)-Catechin]
% Control TPST Activity [1, 5]: 74%

CC/C=C\C/C=C\C/C=C\C/C=C\C/C=C\C/C=C\CCC(=O)O [DHA, docosahexanoic acid]
TPST activity (0 μM = 100.0) ([1]; fatty acid 0.5 μM): 91.8
TPST activity (0 μM = 100.0) ([1]; fatty acid 1 μM): 105.2
TPST activity (0 μM = 100.0) ([1]; fatty acid 2.5 μM): 115.9
TPST activity (0 μM = 100.0) ([1]; fatty acid 5 μM): 109.6
TPST activity (0 μM = 100.0) ([1]; fatty acid 10 μM): 97.0
TPST activity (0 μM = 100.0) ([1]; fatty acid 25 μM): 117.8
TPST activity (0 μM = 100.0) ([1]; fatty acid 50 μM): 119.4
TPST activity (0 μM = 100.0) ([1]; fatty acid 100 μM): 103.3

[Mn+2] [Manganese]
Effect on TPST activity (TPST [2]): suppresses TPST activity

CCCCC/C=C\C/C=C\C/C=C\CCCCC(=O)O [GLA, gamma linolenic acid]
TPST activity (0 μM = 100.0) ([1]; fatty acid 10 μM): 78.8
TPST activity (0 μM = 100.0) ([1]; fatty acid 25 μM): 72.6
TPST activity (0 μM = 100.0) ([1]; fatty acid 50 μM): 71.3
TPST activity (0 μM = 100.0) ([1]; fatty acid 100 μM): 61.2

N[C@@H](Cc1ccccc1)C(=O)O [Phenylalanine]
Effect on TPST activity (in words) [1, 6]: decreased TPST activity in a dose dependent fashion
% Control TPST Activity ([1]; Table 2, 50 μM, normal human platelets): 79%
% Control TPST Activity ([1]; Table 2, 1000 μM, normal human platelets): 40%

O=c1cc(-c2ccccc2)oc2cc(O)c(O)c(O)c12 [5′,6′,7′ OH Flavone]
% Control TPST Activity [1, 5]: 1%

O=c1c(O)c(-c2ccc(O)cc2)oc2cc(O)cc(O)c12 [Kaempferol]
TPST activity (0 μM = 100) ([1]; flavonoid 0.5 μM): 45.2
TPST activity (0 μM = 100) ([1]; flavonoid 1 μM): 39.9
TPST activity (0 μM = 100) ([1]; flavonoid 2.5 μM): 22.3
TPST activity (0 μM = 100) ([1]; flavonoid 5 μM): 21.4
TPST activity (0 μM = 100) ([1]; flavonoid 10 μM): 14.4
TPST activity (0 μM = 100) ([1]; flavonoid 25 μM): 11
TPST activity (0 μM = 100) ([1]; flavonoid 50 μM): 7.3
TPST activity (0 μM = 100) ([1]; flavonoid 100 μM): 2.9

N[C@@H](CCC(=O)O)C(=O)O [Glutamate]
Effect on TPST activity (in words) [1, 6]: decreased activity
% Control TPST Activity [1, 7]: 67%

O=c1cc(-c2ccccc2)oc2ccccc12 [Flavone]
Effect on TPST activity (in words) ([1]; Example 3, 25 μM, platelets): stimulation of TPST activity
% Control TPST Activity [1, 5]: 180%
TPST activity (0 μM = 100) ([1]; flavonoid 0.5 μM): 80.3
TPST activity (0 μM = 100) ([1]; flavonoid 1 μM): 96.4
TPST activity (0 μM = 100) ([1]; flavonoid 2.5 μM): 93.5
TPST activity (0 μM = 100) ([1]; flavonoid 5 μM): 102.3
TPST activity (0 μM = 100) ([1]; flavonoid 10 μM): 126
TPST activity (0 μM = 100) ([1]; flavonoid 25 μM): 172.8
TPST activity (0 μM = 100) ([1]; flavonoid 50 μM): 230.2
TPST activity (0 μM = 100) ([1]; flavonoid 100 μM): 307.3

CCO [Ethanol]
Effect on TPST activity (in words) [1, 6]: stimulation of activity
% Control TPST Activity ([1]; Table 2, 0.4%, normal human platelets): 177%
Increase of TPST level (TPST [3]): over three-fold
TPST enzyme activity versus normal individuals (TPST [4]): two- to three-fold higher

O=c1cc(-c2ccc(O)cc2)oc2cc(O)cc(O)c12 [Apigenin]
% Control TPST Activity [1, 5]: 31%

CCCC(=O)O [Butyric Acid]
% Control TPST Activity [1, 7]: 125%
TPST activity (0 μM = 100.0) ([1]; fatty acid 0.5 μM): 137.6
TPST activity (0 μM = 100.0) ([1]; fatty acid 1 μM): 96.8
TPST activity (0 μM = 100.0) ([1]; fatty acid 2.5 μM): 114.3
TPST activity (0 μM = 100.0) ([1]; fatty acid 5 μM): 94.6
TPST activity (0 μM = 100.0) ([1]; fatty acid 10 μM): 99.2
TPST activity (0 μM = 100.0) ([1]; fatty acid 25 μM): 76.1
TPST activity (0 μM = 100.0) ([1]; fatty acid 50 μM): 86.4
TPST activity (0 μM = 100.0) ([1]; fatty acid 100 μM): 62.2

O=C(O)CC(O)(CC(=O)O)C(=O)O [Citrate]
Effect on TPST activity (in words) [1, 6]: increasing activity
% Control TPST Activity [1, 7]: 113%

CCCCC/C=C\C/C=C\CCCCCCCC(=O)O [Linoleic Acid]
% Control TPST Activity [1, 7]: 113%

O=c1c(O)c(-c2ccc(O)c(O)c2)oc2cc(O)cc(O)c12 [Quercetin]
% Control TPST Activity [1, 7]: 3%
% Control TPST Activity [1, 5]: 48%
TPST activity (0 μM = 100) ([1]; flavonoid 0.5 μM): 45.8
TPST activity (0 μM = 100) ([1]; flavonoid 1 μM): 33.7
TPST activity (0 μM = 100) ([1]; flavonoid 2.5 μM): 25.7
TPST activity (0 μM = 100) ([1]; flavonoid 5 μM): 21.1
TPST activity (0 μM = 100) ([1]; flavonoid 10 μM): 9.5
TPST activity (0 μM = 100) ([1]; flavonoid 25 μM): 5
TPST activity (0 μM = 100) ([1]; flavonoid 50 μM): 0.9
TPST activity (0 μM = 100) ([1]; flavonoid 100 μM): 0

CCCCCC/C=C\CCCCCCCC(=O)O [Palmitoleic]
TPST activity (0 μM = 100.0) ([1]; fatty acid 10 μM): 99.5
TPST activity (0 μM = 100.0) ([1]; fatty acid 25 μM): 95.2
TPST activity (0 μM = 100.0) ([1]; fatty acid 50 μM): 93.5
TPST activity (0 μM = 100.0) ([1]; fatty acid 100 μM): 81.4

O=c1cc(-c2ccccc2)oc2cccc(O)c12 [5 OH Flavone]
% Control TPST Activity [1, 5]: 152%

O=c1c(-c2ccc(O)cc2)coc2cc(O)ccc12 [Daidzein]
Effect on TPST activity (in words) ([1]; Example 3, 25 μM, platelets): stimulation of TPST activity
% Control TPST Activity [1, 5]: 279%
TPST activity (0 μM = 100) ([1]; flavonoid 2.5 μM): 100.2
TPST activity (0 μM = 100) ([1]; flavonoid 5 μM): 107.5
TPST activity (0 μM = 100) ([1]; flavonoid 10 μM): 181.1
TPST activity (0 μM = 100) ([1]; flavonoid 25 μM): 343.2
TPST activity (0 μM = 100) ([1]; flavonoid 50 μM): 303.1

CCCCC[C@H](O)/C=C/[C@H]1[C@H](O)CC(=O)[C@@H]1C/C=C\CCCC(=O)O [PGE2, prostaglandin E2]
Effect on TPST activity (in words) [1, 6]: stimulation of activity
% Control TPST Activity [1, 7]: 124%
